# What was measured:
# [1] = system: cholesterol transporter (NPC1L1); assay: Gene expression level of cholesterol transporter in jejunal epithelial tissue (real-time PCR); type: in vivo, mice; conditions: 0.1% 10-HOA in high-fat diet, 15 weeks, mRNA relative to control group, internal standard 36b4 (FIG. 8)
# Experimental: (§1) The animal experiment was approved by the Animal Experiment Committee of Asahi Group Holdings, Ltd. (Mar. 9, 2017), and was conducted in accordance with the guidelines for the management and use of laboratory animals of the company's R&D center (implementation period: Apr. 3, 2017 to Jan. 10, 2018). Four-week-old C57BL/6N male mice (Japan SLC, Inc.) were purchased and used for the experiment. The mice were raised in the following environment: room temperature: 23±1.5° C., humidity: 55±15%, lighting time: 8:00 to 20:00.
# High-fat diet containing 45 kcal % fat (Research Diets, Inc., D12451) was used to prepare feed with or without 0.1% 10-HOA. […]
# After fasting for 16 hours from the day before dissection, the amount of abdominal visceral fat, subcutaneous fat, and total fat (sum of the amount of visceral fat and subcutaneous fat) were measured by a CT scanner (Latheta LCT-100; Hitachi Aloka Medical, Ltd.), under anesthesia by isoflurane inhalation. […]
# The triglyceride concentration in the plasma was measured using a Triglyceride E test. The amount of cholesterol in the plasma was measured using a conventional method (G. Toshima et al., LipoSEARCH (registered trademark); Analytical GP-HPLC method for lipoprotein profiling and its applications, J. Biol. Macromol., 13 (2), 21-32 (2013)) at Skylight Biotech Inc,. […] The mRNA expression level was expressed as a relative value to the control group.
# [2] = system: C57BL/6N male mice on high-fat diet; assay: Plasma lipids and apolipoprotein A-I in high-fat diet mice; type: in vivo; conditions: 0.1% 10-HOA in high-fat diet, 15 weeks
# Experimental: as §1
# (§2) High-fat diet containing 45 kcal % fat (Research Diets, Inc., D12451) was used to prepare feed with or without 0.1% 10-HOA. The four-week-old mice were acclimated to the high-fat diet for 2 weeks, then divided into two groups: (1) high-fat diet control group and (2) 0.1% 10-HOA-containing high-fat diet group, with 10 mice per group, and were administered the diet for 15 weeks. Feed and drinking water (tap water) were given freely by individual housing.
# (§3) After fasting for 16 hours from the day before dissection, the amount of abdominal visceral fat, subcutaneous fat, and total fat (sum of the amount of visceral fat and subcutaneous fat) were measured by a CT scanner (Latheta LCT-100; Hitachi Aloka Medical, Ltd.), under anesthesia by isoflurane inhalation. Then, the abdomen was opened under anesthesia, and blood was collected from the abdominal vena cava. Visceral fat (perirenal fat, and retroperitoneal fat) and jejunal epithelial tissue were collected to measure the weight of adipose tissue. The above test was repeated three times, and an analysis was performed by a two-way analysis of variance (factor 1: test group, factor 2: number of animal experiments) (n=10×3/group).
# The triglyceride concentration in the plasma was measured using a Triglyceride E test. The amount of cholesterol in the plasma was measured using a conventional method (G. Toshima et al., LipoSEARCH (registered trademark); Analytical GP-HPLC method for lipoprotein profiling and its applications, J. Biol. Macromol., 13 (2), 21-32 (2013)) at Skylight Biotech Inc,. Mouse Apolipoprotein A-I ELISAPRO kit (MABTECH) was used for the measurement of apolipoprotein A-I in the plasma. The jejunal epithelial tissue was collected by QIAzol Lysis Reagent (QIAGEN), and total RNA was extracted according to the product protocol of RNeasy Mini Kit (QIAGEN). Total RNA was reverse transcribed by M-MLV Reverse Transcriptase (Life Technologies Japan Ltd.) to prepare cDNA. To measure the mRNA expression level, real-time PCR by the intercalator method was performed using Light Cycler System (Roche Diagnostics K.K.). […] The mRNA expression level was expressed as a relative value to the control group.
# [3] = system: C57BL/6N male mice on high-fat diet; assay: Fat accumulation in high-fat diet mice (CT scan and adipose tissue weight); type: in vivo; conditions: 15 weeks
# Experimental: as §1, §2, §3
# [4] = 0.1% 10-HOA in high-fat diet (45 kcal % fat), adipose tissue weight, n=10x3/group
structure (smiles),measurement,setting,value
"CCCCCCCCC(O)CCCCCCCCC(=O)O (stereo not shown) [10-HOA, 10-hydroxyoctadecanoic acid]",gene expression level of the cholesterol transporter (NPC1L1) in jejunal epithelial tissue,[1],decrease
same,triglyceride concentration in plasma,"[2]; 16 h fasting, compared to control (FIG. 4)",decreasing tendency
same,Apolipoprotein A-I in plasma,"[2]; ELISA, compared to control (FIG. 6)",increasing tendency
same,small HDL cholesterol in plasma,[2]; compared to control (FIG. 5),significantly increased
same,chylomicron cholesterol in plasma,[2]; compared to control (FIG. 7),significant decrease
same,Fat on the posterior abdominal wall,[3]; [4],0.6805 ± 0.0206 g
same,Perirenal fat,[3]; [4],0.4924 ± 0.0130 g
same,weights of perirenal fat and retroperitoneal fat,"[3]; 0.1% 10-HOA in high-fat diet, compared to control (Table 1)",reduced
same,amount of abdominal visceral fat,"[3]; CT scanner, 0.1% 10-HOA in high-fat diet, compared to control group (FIG. 1)",significantly reduced
same,total amount of fat,"[3]; CT scanner, sum of visceral and subcutaneous fat, 0.1% 10-HOA in high-fat diet, compared to control (FIG. 3)",decreasing tendency

# — patent publication US20210369662A1, “FAT ACCUMULATION INHIBITOR AND BLOOD LIPID LEVEL IMPROVING AGENT” (ASAHI GROUP HOLDINGS, LTD., priority 2018, published 2021)
